From US4102886A, “Process for the preparation of benzo(a)quinolizidine derivatives” (priority 1974, dated 1978)

Legend:
Acute toxicity tests = format: in vivo; conditions: rat, in vivo, po; rats, Litchfield-Wildoxon method
Procedure: The acute toxicity values of the compounds were determined on rats, after oral administration. The LD50 values were calculated according to the Litchfield-Wildoxon method.

[1] = Analgesic effect by the writhing test; format: in vivo; conditions: 50 mg./kg. p.o.
[2] = tested on: serotonine-induced oedema; assay: Tests performed on serotonine-induced oedema; format: in vivo
Procedure: Tests performed on serotonine-induced oedema
The tests were carried out on groups each consisting of 10 animals. The percentage inhibition of oedema, in relation to the untreated controls, was determined for each of the animals. The data listed in Table 3 are the averages of the inhibition values.

Cotton granuloma = Cotton granuloma test; format: in vivo; conditions: 50 mg./kg.
[3] = Toxicity tests performed with compound SC-118; format: in vivo; conditions: rat, in vivo, CFY rats
Procedure: (§1) In order to give a more detailed information, in the following there are given the results of the toxicity tests performed with compound SC-118. The tests were carried out on CFY rats, each weighing 150 to 200 g.

CFY rats = assay: Toxicity tests performed with compound SC-118; format: in vivo
Procedure: as §1

[4] = tested on: experimentally provoked fever; assay: Antipyretic activity (experimentally provoked fever); format: in vivo; design: unit not given here
From the text: Besides their antiphlogistic activities, some of the benzo(a)quinolizidine derivatives exert antipyretic effects as well. On the basis of the tests performed on experimentally provoked fever, the antipyretic activities of the compounds according to the invention surpass the effect of amidazophenum.

[5] = Determination of ulcer index
kaolin-induced oedema = assay: Inhibition of kaolin-induced oedema; format: in vivo; conditions: 2 hours
Procedure: (§2) Inhibition of Kaolin- and carrageenin-induced oedema
(§3) The tests were carried out on groups each consisting of at least 10 animals. The percentage inhibition of oedema, in relation to the untreated controls, was determined for each of the animals, and the average values were calculated.

[6] = Inhibition of kaolin-induced oedema; format: in vivo; conditions: in vivo; LD50/ED50; read-out: Therapeutical index LD50/ED50, kaolin-oedema
Procedure: as §2, §3

central nervious system = assay: Narcosis potentiating effect; format: in vivo
[7] = Analgesic effect by the hot-plate test; format: in vivo; conditions: 50 mg./kg. p.o.
[8] = tested on: carrageenin-induced oedema; assay: Inhibition of carrageenin-induced oedema; format: in vivo; conditions: 1.5 hours
Procedure: as §2, §3

[9] = Inhibition of carrageenin-induced oedema; format: in vivo; conditions: in vivo; LD50/ED50; read-out: Therapeutical index LD50/ED50, carrageenin-oedema
Procedure: as §2, §3

N#CCCC1CN2CCc3cc4c(cc3C2CC1=O)OCO4 (stereo not drawn) [SC-118, 2-Oxo-3-(β-cyano-ethyl)-9,10-methylenedioxy-1,2,3,4,6,7-hexahydro-11bH-benzo(a)quinolisidine]
LD50 (Acute toxicity tests): 1410 mg/kg | Activity, % (reduction of the number of writhings in relation to the controls) [1]: 41.8% | Percentage inhibition 1 hour after administration (serotonine-induced oedema) ([2]; 25 mg./kg. p.o.): 28.5% | Percentage inhibition 1 hour after administration (serotonine-induced oedema) ([2]; 50 mg./kg. p.o.): 42.1% | Percentage inhibition 1 hour after administration (serotonine-induced oedema) ([2]; 75 mg./kg. p.o.): 48.7% | Effect, % (cotton granuloma test) (Cotton granuloma): 26.4% | LD50 ([3]; female, read-out: LD50, f): 1400 mg/kg | LD50 ([3]; male, read-out: LD50, m): 1420 mg/kg | Dead animals/treated animals (CFY rats; 750 mg./kg., 24 hours, female): 0/10 | Dead animals/treated animals (CFY rats; 750 mg./kg., 24 hours, male): 0/10 | Dead animals/treated animals (CFY rats; 750 mg./kg., 48 hours, female): 0/10 | Dead animals/treated animals (CFY rats; 750 mg./kg., 48 hours, male): 0/10 | Dead animals/treated animals (CFY rats; 750 mg./kg., 72 hours, female): 0/10 | Dead animals/treated animals (CFY rats; 750 mg./kg., 72 hours, male): 0/10 | Dead animals/treated animals (CFY rats; 1000 mg./kg., 24 hours, female): 2/10 | Dead animals/treated animals (CFY rats; 1000 mg./kg., 24 hours, male): 1/10 | Dead animals/treated animals (CFY rats; 1000 mg./kg., 48 hours, female): 2/10 | Dead animals/treated animals (CFY rats; 1000 mg./kg., 48 hours, male): 2/10 | Dead animals/treated animals (CFY rats; 1000 mg./kg., 72 hours, female): 2/10 | Dead animals/treated animals (CFY rats; 1000 mg./kg., 72 hours, male): 2/10 | Dead animals/treated animals (CFY rats; 1250 mg./kg., 24 hours, female): 3/10 | Dead animals/treated animals (CFY rats; 1250 mg./kg., 24 hours, male): 2/10 | Dead animals/treated animals (CFY rats; 1250 mg./kg., 48 hours, female): 3/10 | Dead animals/treated animals (CFY rats; 1250 mg./kg., 48 hours, male): 3/10 | Dead animals/treated animals (CFY rats; 1250 mg./kg., 72 hours, female): 3/10 | Dead animals/treated animals (CFY rats; 1250 mg./kg., 72 hours, male): 3/10 | Dead animals/treated animals (CFY rats; 1500 mg./kg., 24 hours, female): 6/10 | Dead animals/treated animals (CFY rats; 1500 mg./kg., 24 hours, male): 5/10 | Dead animals/treated animals (CFY rats; 1500 mg./kg., 48 hours, female): 6/10 | Dead animals/treated animals (CFY rats; 1500 mg./kg., 48 hours, male): 5/10 | Dead animals/treated animals (CFY rats; 1500 mg./kg., 72 hours, female): 6/10 | Dead animals/treated animals (CFY rats; 1500 mg./kg., 72 hours, male): 5/10 | Dead animals/treated animals (CFY rats; 1750 mg./kg., 24 hours, female): 6/10 | Dead animals/treated animals (CFY rats; 1750 mg./kg., 24 hours, male): 6/10 | Dead animals/treated animals (CFY rats; 1750 mg./kg., 48 hours, female): 8/10 | Dead animals/treated animals (CFY rats; 1750 mg./kg., 48 hours, male): 8/10 | Dead animals/treated animals (CFY rats; 1750 mg./kg., 72 hours, female): 8/10 | Dead animals/treated animals (CFY rats; 1750 mg./kg., 72 hours, male): 8/10 | Dead animals/treated animals (CFY rats; 2000 mg./kg., 24 hours, female): 10/10 | Dead animals/treated animals (CFY rats; 2000 mg./kg., 24 hours, male): 10/10 | Dead animals/treated animals (CFY rats; 2000 mg./kg., 48 hours, female): 10/10 | Dead animals/treated animals (CFY rats; 2000 mg./kg., 48 hours, male): 10/10 | Dead animals/treated animals (CFY rats; 2000 mg./kg., 72 hours, female): 10/10 | Dead animals/treated animals (CFY rats; 2000 mg./kg., 72 hours, male): 10/10 | Variation of body temperature ([4]; 25 mg./kg. p.o., 1 hour after administration): -1.67 | Variation of body temperature ([4]; 25 mg./kg. p.o., 2 hours after administration): -1.81 | Variation of body temperature ([4]; 25 mg./kg. p.o., 3 hours after administration): -1.60 | Variation of body temperature ([4]; 50 mg./kg. p.o., 1 hour after administration): -2.75 | Variation of body temperature ([4]; 50 mg./kg. p.o., 2 hours after administration): -3.34 | Variation of body temperature ([4]; 50 mg./kg. p.o., 3 hours after administration): -4.03 | Erosion ([5]; female): 0/10 | Ulcer ([5]; female): 0/10 | Erosion ([5]; male): 0/10 | Ulcer ([5]; male): 0/10 | Inhibition of kaolin-induced oedema 2 hours after administration (kaolin-induced oedema; 25 mg./kg. p.o.): 18.1% | Inhibition of kaolin-induced oedema 2 hours after administration (kaolin-induced oedema; 50 mg./kg. p.o.): 27.5% | Inhibition of kaolin-induced oedema 2 hours after administration (kaolin-induced oedema; 75 mg./kg. p.o.): 43.7% | Inhibition of kaolin-induced oedema 2 hours after administration (kaolin-induced oedema; 100 mg./kg. p.o.): 53.4% | selectivity ratio [6]: 29.2 | Prolongation of the sleep period in relation to the untreated controls, % (central nervious system; 25 mg./kg. p.o.): 96.4% | Prolongation of the sleep period in relation to the untreated controls, % (central nervious system; 50 mg./kg. p.o.): 253.0% | Prolongation of the reaction time, % (2 hours after administration) [7]: 61.2% | Inhibition of carrageenin-induced oedema 1.5 hours after administration ([8]; 25 mg./kg. p.o.): 22.0% | Inhibition of carrageenin-induced oedema 1.5 hours after administration ([8]; 50 mg./kg. p.o.): 30.6% | Inhibition of carrageenin-induced oedema 1.5 hours after administration ([8]; 75 mg./kg. p.o.): 47.7% | Inhibition of carrageenin-induced oedema 1.5 hours after administration ([8]; 100 mg./kg. p.o.): 52.7% | selectivity ratio [9]: 22.6

COc1cc2c(cc1OC)C1CC(=O)C(CCC#N)CN1CC2 (stereo not drawn) [SCT-1, 2-Oxo-3-(β-cyano-ethyl)-9,10-dimethoxy-1,2,3,4,6,7-hexahydro-11bH-benzo(a)quinolizidine]
LD50 (Acute toxicity tests): 620 mg/kg | Percentage inhibition 1 hour after administration (serotonine-induced oedema) ([2]; 50 mg./kg. p.o.): 22.4% | Percentage inhibition 1 hour after administration (serotonine-induced oedema) ([2]; 100 mg./kg. p.o.): 57.8% | Erosion ([5]; female): 4/10 | Ulcer ([5]; female): 2/10 | Erosion ([5]; male): 3/10 | Ulcer ([5]; male): 1/10 | Inhibition of kaolin-induced oedema 2 hours after administration (kaolin-induced oedema; 25 mg./kg. p.o.): 20.5% | Inhibition of kaolin-induced oedema 2 hours after administration (kaolin-induced oedema; 50 mg./kg. p.o.): 21.4% | Inhibition of kaolin-induced oedema 2 hours after administration (kaolin-induced oedema; 75 mg./kg. p.o.): 24.8% | Inhibition of kaolin-induced oedema 2 hours after administration (kaolin-induced oedema; 100 mg./kg. p.o.): 47.8% | selectivity ratio [6]: 12.4 | Prolongation of the sleep period in relation to the untreated controls, % (central nervious system; 25 mg./kg. p.o.): 132.8% | Prolongation of the sleep period in relation to the untreated controls, % (central nervious system; 50 mg./kg. p.o.): 207.6% | Inhibition of carrageenin-induced oedema 1.5 hours after administration ([8]; 50 mg./kg. p.o.): 24.2% | Inhibition of carrageenin-induced oedema 1.5 hours after administration ([8]; 75 mg./kg. p.o.): 25.7% | Inhibition of carrageenin-induced oedema 1.5 hours after administration ([8]; 100 mg./kg. p.o.): 37.7% | selectivity ratio [9]: 6.7

COC(=O)CCC1CN2CCc3cc(OC)c(OC)cc3C2CC1=O (stereo not drawn) [SCT-2, 2-Oxo-3-(β-methoxycarbonyl-ethyl)-9,10-dimethoxy-1,2,3,4,6,7-hexahydro-11bH-benzo(a)quinolizidine]
Percentage inhibition 1 hour after administration (serotonine-induced oedema) ([2]; 100 mg./kg. p.o.): 16.0% | Inhibition of kaolin-induced oedema 2 hours after administration (kaolin-induced oedema; 25 mg./kg. p.o.): 5.8% | Inhibition of kaolin-induced oedema 2 hours after administration (kaolin-induced oedema; 50 mg./kg. p.o.): 21.4% | Inhibition of kaolin-induced oedema 2 hours after administration (kaolin-induced oedema; 75 mg./kg. p.o.): 24.7% | Prolongation of the sleep period in relation to the untreated controls, % (central nervious system; 50 mg./kg. p.o.): 28.3% | Prolongation of the reaction time, % (2 hours after administration) [7]: 26.4% | Inhibition of carrageenin-induced oedema 1.5 hours after administration ([8]; 50 mg./kg. p.o.): 14.3% | Inhibition of carrageenin-induced oedema 1.5 hours after administration ([8]; 75 mg./kg. p.o.): 2.8% | Inhibition of carrageenin-induced oedema 1.5 hours after administration ([8]; 100 mg./kg. p.o.): 17.0%

CCOc1cc2c(cc1OCC)C1CC(=O)C(CCC#N)CN1CC2 (stereo not drawn) [SCT-3, 2-Oxo-3-(β-cyano-ethyl)-9,10-diethoxy-1,2,3,4,6,7-hexahydro-11bH-benzo(a)quinolizidine]
LD50 (Acute toxicity tests): 780 mg/kg | Percentage inhibition 1 hour after administration (serotonine-induced oedema) ([2]; 50 mg./kg. p.o.): 36.2% | Percentage inhibition 1 hour after administration (serotonine-induced oedema) ([2]; 100 mg./kg. p.o.): 47.0% | Erosion ([5]; female): 4/10 | Ulcer ([5]; female): 0/10 | Erosion ([5]; male): 6/10 | Ulcer ([5]; male): 1/10 | Inhibition of kaolin-induced oedema 2 hours after administration (kaolin-induced oedema; 25 mg./kg. p.o.): 17.3% | Inhibition of kaolin-induced oedema 2 hours after administration (kaolin-induced oedema; 50 mg./kg. p.o.): 19.4% | Inhibition of kaolin-induced oedema 2 hours after administration (kaolin-induced oedema; 75 mg./kg. p.o.): 48.9% | Inhibition of kaolin-induced oedema 2 hours after administration (kaolin-induced oedema; 100 mg./kg. p.o.): 45.9% | selectivity ratio [6]: 15 | Prolongation of the sleep period in relation to the untreated controls, % (central nervious system; 25 mg./kg. p.o.): 131.7% | Prolongation of the sleep period in relation to the untreated controls, % (central nervious system; 50 mg./kg. p.o.): 240.2% | Prolongation of the reaction time, % (2 hours after administration) [7]: 33.9% | Inhibition of carrageenin-induced oedema 1.5 hours after administration ([8]; 25 mg./kg. p.o.): 25.1% | Inhibition of carrageenin-induced oedema 1.5 hours after administration ([8]; 50 mg./kg. p.o.): 41.5% | Inhibition of carrageenin-induced oedema 1.5 hours after administration ([8]; 100 mg./kg. p.o.): 53.7% | selectivity ratio [9]: 19.8
